Reference: patent US20250154169A1, “COMPOUNDS AND METHODS FOR MODULATING SPLICING” (REMIX THERAPEUTICS INC., priority 2021, published 2025)
Like-named read-outs stand apart in the source and are kept apart here.

Tests used:
Type in all cases: cell-based, human
[1] = system: MYB mRNA; assay: Splicing RT-qPCR assay, MYB canonical (CJ) and alternative (AJ) junction mRNA; conditions: Homo sapiens; for AC50: read-out: MYB AJ (AC50, increase in alternative junction mRNA)
Procedure, shortened: (§1)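 Read-out is the abundance of canonical-junction versus new alternative-exon-junction mRNA, determined by real-time qPCR after cDNA synthesis and normalized to a housekeeping gene. It is measured in A673 or K562 cells exposed to compounds for 24 h, top dose 10 uM.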

[2] = system: Target C mRNA; assay: Splicing RT-qPCR gene panel, Target C canonical junction (CJ) mRNA; conditions: Homo sapiens, Tables 4A/4B, read-out: Target C (IC50, decrease in CJ mRNA, gene panel)
Procedure, shortened: (§2)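 A673/K562, 24 h cpd, 11-pt 3-fold from 10 uM, DMSO ≤0.25%. Lysis, direct RT-qPCR of CJ isoform, ≥duplicate. GAPDH/GUSB/PPIA norm, ΔΔCt vs DMSO → RQ → % response.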

[3] = system: SMN2 mRNA; assay: Splicing RT-qPCR gene panel, SMN2 canonical junction (CJ) mRNA; conditions: Homo sapiens, Tables 4A/4B, read-out: SMN2 (IC50, decrease in CJ mRNA, gene panel)
Procedure, shortened: as §2

[4] = system: HTT mRNA; assay: Splicing RT-qPCR assay, HTT canonical (CJ) and alternative (AJ) junction mRNA; conditions: Homo sapiens, A673 or K562 cells, 24 hours compound treatment; for IC50: 24 h, read-out: HTT CJ (IC50, decrease in canonical junction mRNA); for AC50: read-out: HTT AJ (AC50, increase in alternative junction mRNA)
Procedure, shortened: as §1

[5] = system: HTT mRNA; assay: Splicing RT-qPCR gene panel, HTT canonical junction (CJ) mRNA; conditions: Homo sapiens, Tables 4A/4B, read-out: HTT (IC50, decrease in CJ mRNA, gene panel)
Procedure, shortened: as §2

[6] = 24 h, A673 or K562 cells, 24 hours compound treatment, RT-qPCR
[7] = 24 h, A673 or K562 cells, 24 hours compound treatment, RT-qPCR, read-out: MYB CJ (IC50, decrease in canonical junction mRNA)
[8] = Tables 4A/4B, canonical junction qPCR panel, read-out: MYB (IC50, decrease in CJ mRNA, gene panel)

IC50 [1, 7] | IC50 [1, 8] | IC50 [2] | IC50 [3] | IC50 [4] | IC50 [5] | SMILES | AC50 [1, 6] | AC50 [4]
< 0.1 µM | < 0.1 µM | > 10 µM | < 0.1 µM | 1 to 10 µM | 1 to 10 µM | CCn1cc2c(N3CC[C@@H](N(C)C)C3)cc(F)c(C(=O)Nc3cc(F)c4nc(C)cn4c3)c2n1 [Compound 473, 4-[(3R)-3-(dimethylamino)pyrrolidin-1-yl]-2-ethyl-6-fluoro-N-{8-fluoro-2-methylimidazo[1,2-a]pyridin-6-yl}indazole-7-carboxamide; bis(trifluoroacetic acid)] | < 0.1 µM | 1 to 10 µM
< 0.1 µM | < 0.1 µM | 1 to 10 µM | < 0.1 µM | 0.1 to 1 µM | 0.1 to 1 µM | CCn1cc2c(N3C[C@@H](C)N[C@@H](C)C3)cc(F)c(C(=O)Nc3cc(F)c4nc(C)cn4c3)c2n1 [Compound 475, 4-[(3R,5S)-3,5-dimethylpiperazin-1-yl]-2-ethyl-6-fluoro-N-{8-fluoro-2-methylimidazo[1,2-a]pyridin-6-yl}indazole-7-carboxamide; trifluoroacetic acid] | < 0.1 µM | 0.1 to 1 µM
< 0.1 µM | < 0.1 µM | > 10 µM | < 0.1 µM | 1 to 10 µM | > 10 µM | CNC1CCN(c2ccc(C(=O)Nc3cn4cc(C)nc4c(OC)n3)c3nn(C)cc23)C1 (stereo not drawn) [Compound 417] | < 0.1 µM | > 10 µM

Further lines, the compound ahead of its results:

SMILES | IC50 [1, 7] | IC50 [1, 8] | IC50 [2] | IC50 [3] | IC50 [4] | IC50 [5] | AC50 [1, 6] | AC50 [4]
Cc1cn2cc(NC(=O)c3ccc(N4CCNCC4)c4cn(CC5(C)COC5)nc34)cc(F)c2n1 [Compound 308, N-{8-fluoro-2-methylimidazo[1,2-a]pyridin-6-yl}-2-[(3-methyloxetan-3-yl)methyl]-4-(piperazin-1-yl)indazole-7-carboxamide] | > 10 µM | > 10 µM | > 10 µM | > 10 µM | > 10 µM | > 10 µM | > 10 µM | > 10 µM
COc1cc(C(=O)Nc2cc(F)c3nc(C)cn3c2)c2nn(C)cc2c1N1CCNCC1 [Compound 311, N-{8-fluoro-2-methylimidazo[1,2-a]pyridin-6-yl}-5-methoxy-2-methyl-4-(piperazin-1-yl)indazole-7-carboxamide] | 0.1 to 1 µM | 0.1 to 1 µM | > 10 µM | < 0.1 µM | > 10 µM | > 10 µM | 1 to 10 µM | > 10 µM
Cc1cn2cc(NC(=O)c3ccc(N4CCNCC4)c4cn(CC(=O)N(C)C)nc34)cc(F)c2n1 [Compound 309, 2-[(dimethylcarbamoyl)methyl]-N-{8-fluoro-2-methylimidazo[1,2-a]pyridin-6-yl}-4-(piperazin-1-yl)indazole-7-carboxamide] | 1 to 10 µM | 1 to 10 µM | > 10 µM | 1 to 10 µM | > 10 µM | > 10 µM | > 10 µM | > 10 µM
Cc1cn2cc(NC(=O)c3ccc(N4CCN[C@H](C)C4)c4cn(C)nc34)cc(F)c2n1 (single isomer, unassigned) [Compound 353] | < 0.1 µM | < 0.1 µM | 1 to 10 µM | < 0.1 µM | 0.1 to 1 µM | 0.1 to 1 µM | < 0.1 µM | 0.1 to 1 µM
Cc1cn2cc(NC(=O)c3ccc(C4CC(C)(C)NC(C)(C)C4)c4cc(C)oc34)cc(F)c2n1 [Compound 271] | 1 to 10 µM | 1 to 10 µM | > 10 µM | 0.1 to 1 µM | > 10 µM | > 10 µM | 1 to 10 µM | > 10 µM
Cc1cn2cc(NC(=O)c3ccc(N4CC[C@@H](N)C4)c4cn(C)nc34)cc(F)c2n1 [Compound 381, 4-[(3R)-3-aminopyrrolidin-1-yl]-N-{8-fluoro-2-methylimidazo[1,2-a]pyridin-6-yl}-2-methylindazole-7-carboxamide] | < 0.1 µM | < 0.1 µM | > 10 µM | < 0.1 µM | > 10 µM | > 10 µM | < 0.1 µM | > 10 µM
